The values below come from patent US12351574B2, “Selective ligands for modulation of GIRK channels” (Northeastern University, priority 2018, dated 2025).

One data set has as its target T1, GIRK1/4(VT-IV) (Homo sapiens, UniProt P48544+P48549, T94V/V92I).
T1 construct: expressed in transfected cells; host or cells: Xenopus laevis oocytes (cRNA injection)
T1 sequence (P48549 1-501): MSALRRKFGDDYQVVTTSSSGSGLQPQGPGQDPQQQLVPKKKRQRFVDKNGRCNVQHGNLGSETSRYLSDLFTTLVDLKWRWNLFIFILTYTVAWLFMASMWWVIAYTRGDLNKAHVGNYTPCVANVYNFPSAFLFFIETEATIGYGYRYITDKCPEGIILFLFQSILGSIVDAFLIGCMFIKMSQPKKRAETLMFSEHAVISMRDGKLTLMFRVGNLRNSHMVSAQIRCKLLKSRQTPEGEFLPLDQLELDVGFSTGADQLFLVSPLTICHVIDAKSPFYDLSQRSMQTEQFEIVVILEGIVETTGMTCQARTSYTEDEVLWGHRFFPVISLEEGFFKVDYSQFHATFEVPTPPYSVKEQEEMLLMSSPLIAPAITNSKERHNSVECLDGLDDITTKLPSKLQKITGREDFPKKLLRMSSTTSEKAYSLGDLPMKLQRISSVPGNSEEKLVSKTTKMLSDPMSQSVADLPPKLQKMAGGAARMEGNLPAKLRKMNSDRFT
T1 sequence (P48544 1-419 V92I/T94V): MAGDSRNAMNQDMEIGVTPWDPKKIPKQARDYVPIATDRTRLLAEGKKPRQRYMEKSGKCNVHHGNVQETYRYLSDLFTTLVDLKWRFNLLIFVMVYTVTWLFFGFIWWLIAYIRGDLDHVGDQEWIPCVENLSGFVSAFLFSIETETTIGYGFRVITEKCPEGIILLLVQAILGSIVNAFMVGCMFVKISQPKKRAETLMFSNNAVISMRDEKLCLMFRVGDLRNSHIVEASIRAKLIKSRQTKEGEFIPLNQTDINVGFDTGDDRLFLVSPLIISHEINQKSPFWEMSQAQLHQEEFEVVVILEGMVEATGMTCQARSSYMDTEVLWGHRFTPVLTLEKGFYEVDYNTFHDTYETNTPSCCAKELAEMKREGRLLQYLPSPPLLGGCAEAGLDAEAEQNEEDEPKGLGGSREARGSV
The experiment in a line: TEVC in Xenopus oocytes, double mutant GIRK1/4(VT-IV). Type of data set: cell-based. To be noted: GIRK1/4(VT-IV) double mutant. The text has this:
(§1) Molecular biology: For Xenopus oocyte expression, human GIRK1 and human GIRK4 cDNAs were subcloned into pGEMHE. For mammalian expression, human GIRK1 and human GIRK4 cDNAs were subcloned into pcDNA3 and pcDNA3.1/V5-His B, respectively (Invitrogen). Mouse GIRK2 cDNA was subcloned in the dual-function vector, pXoom. Point mutations were introduced using a standard Pfu-based mutagenesis technique according to the QuikChange protocol (Agilent). Mutations were verified by sequencing.
(§2) Electrophysiology of oocytes: Whole-oocyte currents were measured by conventional two-electrode voltage clamp (TEVC) with a GeneClamp 500 amplifier (Axon Instruments). Agarose cushion microelectrodes were filled with 1.5% (w/v) agarose in 3 M KCl and were used with resistances between 0.1 and 1.5 megaohms. […] Barium-sensitive basal currents from both groups, 1) Vehicle, 2) single concentration at 10 μM and 3) multiple concentrations of ML297 or GAT compounds in the presence of HK solution, were assessed at −80 mV using TEVC. Barium-sensitive currents were normalized to average basal current in the vehicle solutions. The HK solution contained the following: 96 mM KCl, 1 mM NaCl, 1 mM MgCl2, 5 mM KOH/HEPES, pH 7.4. The barium solution consisted of HK+10 mM BaCl2. Five to ten oocytes from the same batch (same frog) were recorded for each group, and the experiments were repeated in at least four batches. Data acquisition and analysis were carried out using pClamp9 (Molecular Devices) and OriginPro (Microcal) software.
(§3) To test these computational predictions, the inventors mutated each or both of the two M1 key wild-type GIRK4 subunit residues to the corresponding GIRK2 residues (GIRK4-V92I, GIRK4-T94V, GIRK4-V92I/T94V or GIRK4-dm) and vice-versa the GIRK2 residues to the corresponding GIRK4 ones (GIRK2-I97V, GIRK2-V99T, GIRK2-I97V/V99T or GIRK2-dm) (FIG. 35). […]

A further data set has as its target T2, GIRK1/2(V-T) (UniProt P48542+P48549, V99T).
T2 construct: expressed in transfected cells; host or cells: Xenopus laevis oocytes (cRNA injection)
T2 sequence (P48549 1-501): T1 sequence (P48549 1-501)
T2 sequence (P48542 1-425 V99T): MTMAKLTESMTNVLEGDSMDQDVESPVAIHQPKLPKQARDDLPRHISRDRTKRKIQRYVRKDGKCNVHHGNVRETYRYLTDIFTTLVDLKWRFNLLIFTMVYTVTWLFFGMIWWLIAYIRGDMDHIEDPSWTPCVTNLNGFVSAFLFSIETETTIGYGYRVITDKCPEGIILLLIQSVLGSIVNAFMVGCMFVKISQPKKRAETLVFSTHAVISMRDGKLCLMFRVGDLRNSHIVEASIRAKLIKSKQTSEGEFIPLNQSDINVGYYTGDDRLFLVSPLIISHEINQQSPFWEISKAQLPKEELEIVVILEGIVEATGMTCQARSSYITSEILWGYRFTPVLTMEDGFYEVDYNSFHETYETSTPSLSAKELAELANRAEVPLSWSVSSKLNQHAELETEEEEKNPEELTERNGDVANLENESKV
The experiment in a line: TEVC in Xenopus oocytes, single mutant GIRK1/2(V-T). It counts as cell-based, human GIRK1, mouse GIRK2. To be noted: GIRK1/2(V-T) single mutant.
Excerpt: as §1, §2, §3

Data set [1] has as its target human ERG (hERG) channels (Homo sapiens, UniProt Q12809). The arrangement: expressed in transfected cells; host or cells: Xenopus oocytes. Conditions: published; cited from earlier work.
The mark [2] stands for this setting: read-out: EMAX, % of the control GIRK1/2.

Chain of human ERG (hERG) channels (Q12809 whole entry): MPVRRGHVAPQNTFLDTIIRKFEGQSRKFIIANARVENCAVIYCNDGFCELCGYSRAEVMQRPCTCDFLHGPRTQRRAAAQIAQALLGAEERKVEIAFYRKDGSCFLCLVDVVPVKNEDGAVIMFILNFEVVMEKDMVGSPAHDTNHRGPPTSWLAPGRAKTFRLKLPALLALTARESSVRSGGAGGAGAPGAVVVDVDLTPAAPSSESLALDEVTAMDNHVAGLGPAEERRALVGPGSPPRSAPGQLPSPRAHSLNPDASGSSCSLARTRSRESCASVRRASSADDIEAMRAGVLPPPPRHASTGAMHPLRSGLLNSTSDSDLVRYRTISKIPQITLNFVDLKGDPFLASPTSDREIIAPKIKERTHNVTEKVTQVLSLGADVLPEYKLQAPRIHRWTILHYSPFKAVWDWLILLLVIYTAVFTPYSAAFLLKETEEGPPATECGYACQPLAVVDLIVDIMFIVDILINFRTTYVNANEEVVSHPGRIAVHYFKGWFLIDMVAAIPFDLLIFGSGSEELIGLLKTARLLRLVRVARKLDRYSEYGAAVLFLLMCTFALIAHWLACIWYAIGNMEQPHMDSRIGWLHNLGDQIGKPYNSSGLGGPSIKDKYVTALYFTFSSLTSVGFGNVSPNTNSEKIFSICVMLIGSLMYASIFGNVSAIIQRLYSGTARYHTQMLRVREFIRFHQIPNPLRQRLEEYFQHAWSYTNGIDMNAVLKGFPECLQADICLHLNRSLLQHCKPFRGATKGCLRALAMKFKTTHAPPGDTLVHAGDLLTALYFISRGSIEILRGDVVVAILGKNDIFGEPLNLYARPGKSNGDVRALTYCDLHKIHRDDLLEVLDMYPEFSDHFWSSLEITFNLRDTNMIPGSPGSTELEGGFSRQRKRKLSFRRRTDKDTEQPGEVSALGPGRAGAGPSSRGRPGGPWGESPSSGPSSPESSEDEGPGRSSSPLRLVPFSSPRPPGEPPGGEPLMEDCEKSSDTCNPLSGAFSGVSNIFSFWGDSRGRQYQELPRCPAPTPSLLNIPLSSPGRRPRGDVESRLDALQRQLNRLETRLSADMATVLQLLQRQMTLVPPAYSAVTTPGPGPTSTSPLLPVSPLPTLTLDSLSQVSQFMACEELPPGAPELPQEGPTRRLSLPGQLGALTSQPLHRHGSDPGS

With `Cc1cc(NC(=O)Nc2ccc(Br)s2)n(-c2ccccc2)n1` [GAT1508, 1-(5-bromothiophen-2-yl)-3-(3-methyl-1-phenyl-1H-pyrazol-5-yl)urea], the EC50 on GIRK1/4(VT-IV) is 550 ± 110 nM; on GIRK1/2(V-T) it was 530 ± 70 nM. Further, the EMAX on GIRK1/4(VT-IV) is 1.76±0.03; at GIRK1/2(V-T), 1.92±0.03. Moreover, the Emax on GIRK1/4(VT-IV) (setting [2]) is 75%; at GIRK1/2(V-T) (setting [2]), 65%.

For the molecule `Cc1cc(NC(=O)Nc2ccc(F)c(F)c2)n(-c2ccccc2)n1` [ML297, reference compound], in data set [1], the IC50 was ~10000 nM.

A word on the EC50: it is the concentration that produces a half-maximal response. Higher therefore signals weaker potency. A word on the IC50: it is the midpoint of a concentration-inhibition curve.
